Measured values from ChEMBL document CHEMBL5528053, “Discovery of Novel Isoquinoline Analogues as Dual Tubulin Polymerization/V-ATPase Inhibitors with Immunogenic Cell Death Induction” (J Med Chem, 2024).
The source made the active and inactive calls. The calls are words filed in the database; no cut-off is given here.

Assays:
[1] = system: PC-3; assay: Inhibition of autophagy in human PC-3 cells assessed as increase in number of autophagosomes at 50 uM measured after 3 hrs by immunofluorescence imaging based analysis; type: functional, cell-based
[2] = system: A549; assay: Antiproliferative activity against human A549 cells assessed as inhibition of cell growth after 72 hrs by MTT assay; type: functional, cell-based; conditions: A549, 72 h
[3] = system: DU-145; assay: Antiproliferative activity against human DU-145 cells assessed as inhibition of cell growth after 72 hrs by MTT assay; type: functional, cell-based; conditions: DU-145, 72 h
[4] = system: PC-3; assay: Antiproliferative activity against human PC-3 cells assessed as inhibition of cell growth after 72 hrs by MTT assay; type: functional, cell-based; conditions: PC-3, 72 h
[5] = system: MDA-MB-231; assay: Antiproliferative activity against human MDA-MB-231 cells assessed as inhibition of cell growth after 72 hrs by MTT assay; type: functional, cell-based; conditions: MDA-MB-231, 72 h
[6] = Antitumor activity against mouse RM1 cells xenografted in immunocompetent […] mouse model assessed as tumor growth inhibition at 5 mg/kg, iv measured every two days for 14 days relative to control; type: functional; conditions: RM1, 336 h, time 14 day, read-out: TGI
[7] = Toxicity in ICR mouse assessed as bone marrow suppression by measuring WBC level at 5 mg/kg, ip measured for 14 days; type: organism-based; conditions: in vivo, 336 h, time 14 day
[8] = Toxicity in ICR mouse assessed as bone marrow suppression by measuring RBC level at 5 mg/kg, ip measured for 14 days; type: organism-based, Erythrocyte; conditions: in vivo, 336 h, time 14 day
[9] = Toxicity in ICR mouse assessed as bone marrow suppression by measuring hemoglobin count at 5 mg/kg, ip measured for 14 days; type: organism-based; conditions: in vivo, 336 h, time 14 day
[10] = Toxicity in ICR mouse assessed as decrease in lymphocytes at 5 mg/kg, ip measured for 14 days; type: organism-based; conditions: in vivo, 336 h, time 14 day
[11] = Toxicity in ICR mouse assessed as effect on ALT level at 5 mg/kg, ip measured for 14 days; type: organism-based; conditions: in vivo, 336 h, time 14 day
[12] = Antitumor activity against mouse RM1 cells homografted in C57BL/6 mouse model assessed as tumor growth inhibition at 5 mg/kg, iv administered every two days for 14 days by vernier caliper based analysis relative to control; type: functional; conditions: RM1, 336 h, time 14 day, read-out: TGI
[13] = Antitumor immunity against mouse RM1 cells homografted in C57BL/6 mouse model assessed as increase in tumor infiltrating lymphocytes at 5 mg/kg, iv administered every two days for 14 days by flow cytometry analysis (reference value: 5.26%); type: functional; conditions: time 14 day
[14] = Antitumor immunity against mouse RM1 cells homografted in C57BL/6 mouse model assessed as increase in tumor infiltrating CD3+CD8+T cells (CTLs) at 5 mg/kg, iv administered every two days for 14 days by flow cytometry analysis (reference value: 0.89%); type: functional; conditions: time 14 day
[15] = Antitumor immunity against mouse RM1 cells homografted in C57BL/6 mouse model assessed as increase in tumor infiltrating helper T lymphocytes at 5 mg/kg, iv administered every two days for 14 days by flow cytometry analysis (reference value: 6.59%); type: functional; conditions: time 14 day
[16] = system: RM1; assay: Antitumor immunity against mouse RM1 cells homografted in C57BL/6 mouse model assessed as increase in tumor infiltrating CD3+CD8+T cells (CTLs) in spleen at 5 mg/kg, iv administered every two days for 14 days by flow cytometry analysis; type: functional, organism-based; conditions: time 14.0 day
[17] = system: RM1; assay: Antitumor immunity against mouse RM1 cells homografted in C57BL/6 mouse model assessed as increase in tumor infiltrating helper T lymphocytes in spleen at 5 mg/kg, iv administered every two days for 14 days by flow cytometry analysis; type: functional, organism-based; conditions: time 14.0 day
[18] = system: RM1; assay: Antitumor immunity against mouse RM1 cells homografted in C57BL/6 mouse model assessed as increase in activation of tumor infiltrating lymphocytes in spleen at 5 mg/kg, iv administered every two days for 14 days by flow cytometry analysis; type: functional, organism-based; conditions: time 14.0 day
[19] = Anticancer activity against mouse RM1 cells assessed as increase in mean fluorescence intensity at 2 nM measured after 24 hrs by flow cytometry analysis (reference value: 7.40+/-3.96 ); type: functional

| SMILES | IC50 [2] | IC50 [3] | IC50 [4] | IC50 [5] | further results |
| --- | --- | --- | --- | --- | --- |
| CCN(CC)CCCC(C)Nc1ccnc2cc(Cl)ccc12 (stereo unspecified) | – | – | – | – | inhibition [1]: Active |
| CCOc1c(OC)cc(-c2nc(C(N)=O)cc3cc4c(cc23)OCCO4)cc1OC | > 10 µM | > 10 µM | > 10 µM | > 10 µM | – |
| COc1cc(-c2nc(C(N)=O)cc3cc4c(cc23)OCCO4)cc(Cl)c1OC | 0.16 µM | 0.27 µM | 0.2 µM | 0.21 µM | – |
| CCOc1cc(-c2nc(C(N)=O)cc3cc4c(cc23)OCCO4)cc(OC)c1OC | 0.37 µM | 0.54 µM | 0.39 µM | 0.48 µM | – |
| COc1c(Br)cc(-c2nc(C(N)=O)cc3cc4c(cc23)OCCO4)cc1Br | 0.2 µM | 0.32 µM | 0.27 µM | 0.4 µM | – |
| COc1cc(-c2nc(C(N)=O)cc3cc(OCCCN4CCOCC4)ccc23)cc(OC)c1OC | > 10 µM | > 10 µM | > 10 µM | > 10 µM | – |
| CC(=O)O[C@H]1C(=O)[C@@]2(C)[C@H]([C@H](OC(=O)c3ccccc3)[C@]3(O)C[C@H](OC(=O)[C@H](O)[C@@H](NC(=O)c4ccccc4)c4ccccc4)C(C)=C1C3(C)C)[C@]1(OC(C)=O)CO[C@@H]1C[C@@H]2O [PACLITAXEL] | – | – | – | – | inhibition in vivo at 5 mg/kg [6]: 55.5%; Activity [7]: Toxic; Activity [8]: Toxic; Activity [9]: Toxic; Activity [10]: Toxic; Activity [11]: Toxic; inhibition in vivo at 5 mg/kg [12]: 54.6%; Activity [13]: 5.68%; Activity [14]: 1.16%; Activity [15]: 9.81%; Activity [16]: inactive; Activity [17]: inactive; Activity [18]: Active |
| COc1c(Cl)cc(-c2nc(C(N)=O)cc3cc4c(cc23)OCCO4)cc1Cl | 0.25 µM | 0.49 µM | 0.64 µM | 0.87 µM | – |
| CCCOc1ccc2c(-c3cc(OC)c(OC)c(OC)c3)nc(C(N)=O)cc2c1 | > 10 µM | > 10 µM | > 10 µM | > 10 µM | – |
| CCCOc1c(OC)cc(-c2nc(C(N)=O)cc3cc4c(cc23)OCCO4)cc1OC | 1.39 µM | 1.64 µM | 1.99 µM | 2.42 µM | – |
| COc1c(I)cc(-c2nc(C(N)=O)cc3cc4c(cc23)OCCO4)cc1I | 2.15 µM | 3.22 µM | 1.98 µM | 0.73 µM | – |
| COc1cc(-c2nc(C(N)=O)cc3cc4c(cc23)OCCO4)cc2c1OCCO2 | 1.85 µM | 1.56 µM | 1.35 µM | 0.75 µM | – |
| COc1cc(-c2nc(C(N)=O)cc3cc4c(cc23)OCCO4)cc2c1OCO2 | 2.01 µM | 0.75 µM | 1.12 µM | 1.31 µM | – |
| COc1cc2c(c(OC)c1OC)-c1ccc(OC)c(=O)cc1[C@@H](NC(C)=O)CC2 [COLCHICINE] | – | 0.07 µM | 0.05 µM | 0.12 µM | – |
| COc1cc(-c2nc(C(=O)O)cc3cc4c(cc23)OCCO4)cc(OC)c1OC | > 10 µM | > 10 µM | > 10 µM | > 10 µM | – |
| CCOc1ccc2c(-c3cc(OC)c(OC)c(OC)c3)nc(C(N)=O)cc2c1 | > 10 µM | > 10 µM | > 10 µM | > 10 µM | – |
| COc1cc(-c2nc(C(N)=O)cc3cc4c(cc23)OCCO4)cc(I)c1OC | 0.18 µM | 0.3 µM | 0.17 µM | 0.3 µM | – |
| COc1cc(-c2nc(C(N)=O)cc3cc4c(cc23)OCCO4)cc(OC)c1OC | 0.84 µM | 1.05 µM | 1.18 µM | 1.27 µM | – |
| COC(=O)c1cc2cc3c(cc2c(-c2cc(OC)c(OC)c(OC)c2)n1)OCCO3 | 1.53 µM | 2.1 µM | 1.57 µM | 3.21 µM | – |
| COc1cc(-c2nc(C(N)=O)cc3cc4c(cc23)OCCO4)cc2c1OCCCO2 | 2.95 µM | 8.35 µM | 3.34 µM | > 10 µM | – |
| COc1cc(-c2nc(C(=O)NO)cc3cc4c(cc23)OCCO4)cc(OC)c1OC | 1.75 µM | 1.94 µM | 1.48 µM | 1.58 µM | – |
| CCCOc1cc(-c2nc(C(N)=O)cc3cc4c(cc23)OCCO4)cc(OC)c1OC | 5.56 µM | > 10 µM | > 10 µM | > 10 µM | – |
| COc1ccc2c(-c3cc(OC)c(OC)c(OC)c3)nc(C(N)=O)cc2c1 | > 10 µM | > 10 µM | > 10 µM | > 10 µM | – |
| COc1cccc2c1C(=O)c1c(O)c3c(c(O)c1C2=O)C[C@@](O)(C(=O)CO)C[C@@H]3O[C@H]1C[C@H](N)[C@H](O)[C@H](C)O1 [DOXORUBICIN] | – | – | – | – | Flu intensity [19]: 184.3 |
| COc1cc(-c2nc(CO)cc3cc4c(cc23)OCCO4)cc(OC)c1OC | 1.26 µM | 1.46 µM | 1.63 µM | 1.35 µM | – |
| COc1cc2c(O)c3c(c(-c4ccc5c(c4)OCO5)c2cc1OC)C(=O)OC3 [DIPHYLLIN] | 0.89 µM | 0.38 µM | 0.21 µM | 2.27 µM | – |
